B1: p4382 (peptide)
peptide: TSFRHGC
B2: p4387 (peptide)
peptide: SAFRHHC
B3: p4393 (peptide)
peptide: EEFKYSC
B4: p4385 (peptide)
peptide: SQFRHYC
B5: p4380 (peptide)
peptide: QDFRHYC
B6: p4384 (peptide)
peptide: TPFRHTC
B7: p4388 (peptide)
peptide: LPFRHGC
B8: p4389 (peptide)
peptide: SHFRHGC
B9: p4391 (peptide)
peptide: QFKHDLC

system: monoclonal antibody MV-001; assay: In vitro binding assay (ELISA), BSA-coupled peptides, parental antibody MV-001; set-up: species or system C57/B16 mice; settings: Table 1C; peptide-BSA on plate, compared to original epitope
Experimental: (§1) Peptides derived from Phage Display as well as variants thereof were coupled to BSA and bound to ELISA plates (1 μM; as indicated in the respective figures) and subsequently incubated with the monoclonal antibody that was used for the screening procedure to analyse binding capacity of identified peptides.
Legend to Table 1C: the binding capacity is coded by the following binding code: 1:X describes the dilution factor of the parental AB

Row | Molecule | Binding Capacity
1 | ADHDFRHC [p4740] | 3 (strong binding :>20000)
2 | TLHEFRHC [p4715] | 3 (strong binding :>20000)
3 | YEFRHAQC [p4748] | 3 (strong binding :>20000)
4 | SPNQFRHC [p4707] | 3 (strong binding :>20000)
5 | THTDFRHC [p4725] | 3 (strong binding :>20000)
6 | LMFRHNC [p4386] | 3 (strong binding :>20000)
7 | ELFKHHLC [p4714] | 3 (strong binding :>20000)
8 | SQFRHYC [p4385] | 2 (medium binding :4000-20000)
9 | TSVFRHC [p4383] | 3 (strong binding :>20000)
10 | DEHPFRHC [p4730] | 3 (strong binding :>20000)
11 | QSEFKHWC [p4738] | 3 (strong binding :>20000)
12 | SEFKHGC [p4381] | 3 (strong binding :>20000)
13 | ILFRHGC [p4390] | 3 (strong binding :>20000)
14 | TEFRHKAC [p4753] | 3 (strong binding :>20000)

system: monoclonal antibody MV-002; assay: In vitro inhibition assay (ELISA), MV-002 binding to original epitope; set-up: species or system C57/B16 mice; settings: Table 2 (MV-002); OD at 5 ug peptide compared to original peptide
Experimental: (§2) Different amounts of peptides (concentrations ranging from 10 μg to 0.08 μg; serial dilutions; for MV-002: concentrations ranging from 5 μg to 0.03 μg; serial dilutions), derived from Phage Display were incubated with the monoclonal antibody that was used for the screening procedure. Peptides diminishing subsequent binding of the antibody to the original epitope coated on ELISA plates were considered as inhibiting in this assay.
Legend to Table 2: the inhibition capacity is coded by the following code: Weak inhibition means more peptide is required to lower AB binding than with the original epitope; strong inhibition means similar peptide amounts are required for mimotope and original epitope for lowering AB binding. Mimotopes are compared to the original peptide as standard. OD at 5 ug peptide used in the assay is used to calculate the competition capacity compared to original peptide.

Row | Molecule | Inhibition Capacity
15 | HQKMIFC [p4794] | 1 (Weaker than original epitope (OD of peptide below 4, 6 times of original peptide))
16 | GEILFGMC [p4689] | 1 (Weaker than original epitope (OD of peptide below 4, 6 times of original peptide))
17 | SHQRLWFC [p4674] | 1 (Weaker than original epitope (OD of peptide below 4, 6 times of original peptide))
18 | NDAKIVFC [p4667] | 1 (Weaker than original epitope (OD of peptide below 4, 6 times of original peptide))

system: Aβ/truncated/modified forms; assay: In vivo characterisation of mimotopes: detection of Aβ/truncated/modified forms; set-up: species or system C57/B16 mice; key: +: All peptides listed in Table 4 mount specific immune reactions against full length and/or truncated and modified forms of Aβ or fragments thereof; settings: Table 4, MV-001 derived mimotopes
Experimental: Inhibiting as well as non-inhibiting peptides were coupled to KLH and injected into mice (wildtype C57/B16 mice; subcutaneous injection into the flank) together with an appropriate adjuvant (aluminium hydroxide). Animals were vaccinated 3-6 times in biweekly intervals and sera were taken biweekly as well. Titers to injected peptides, as well as to an irrelevant peptide were determined with every serum. Furthermore, titers against the recombinant human Aβ protein, and against original peptides were determined respectively. In general sera were analysed by reaction against peptides coupled to Bovine Serum Albumin (BSA) and recombinant full length proteins which were immobilised on ELISA plates. Titers were determined using anti mouse IgG specific antibodies. For detailed results see FIGS. 15, 16 and 17 respectively and FIGS. 23, 24 and 25 respectively.
(§3) Female C57/b16 mice, 5-6 mice per group, were subcutaneously immunized with 30 μg peptide coupled to KLH. Control groups were administered original epitope-KLH conjugates respectively. As adjuvant alum was used (always 1 mg per mouse). […] The in vitro ELISA assay to determine the antibody titer was performed with sera of single mice after each vaccination in a two week interval (see FIGS. 15 and 16 respectively). The wells of the ELISA plate were coated with mimotope-BSA conjugate and an irrelevant peptide-BSA conjugate (negative control). The positive control was performed by reaction of the parental antibody with the respective mimotope-BSA conjugate. The detection was performed with anti-mouse IgG. Additionally, recombinant proteins were immobilised on ELISA plates and sera reacted accordingly. FIGS. 15 to 17 show representative examples for assays used to characterise mimotopes in vivo.
as §3, with “FIGS. 25” for “FIGS. 15”, “and 26” for “and 16”, “respectively). Titers were calculated as OD max/2 in all figures shown.” for “respectively).”, “FIGS. 23, 24 and 25” for “FIGS. 15 to 17”

Row | Molecule | Detection of Aβ/truncated/modified forms
19 | ADHDFRHC [p4740] | +
20 | TLHEFRHC [p4715] | +
21 | YEFRHAQC [p4748] | +
22 | SPNQFRHC [p4707] | +
23 | THTDFRHC [p4725] | +
24 | LMFRHNC [p4386] | +
25 | ELFKHHLC [p4714] | +
26 | SQFRHYC [p4385] | +
27 | TSVFRHC [p4383] | +
28 | DEHPFRHC [p4730] | +
29 | QSEFKHWC [p4738] | +
30 | SEFKHGC [p4381] | +
31 | ILFRHGC [p4390] | +
32 | TEFRHKAC [p4753] | +

system: monoclonal antibody MV-002; assay: In vitro binding assay (ELISA), BSA-coupled peptides, parental antibody MV-002; set-up: species or system C57/B16 mice; settings: Table 1 (MV-002); peptide-BSA on plate, compared to original epitope
Experimental: as §1
Legend to Table 1: the binding capacity is coded by the following binding code: 1:X describes the dilution factor of the parental AB. Ac- . . . indicates acetylated AA.

Row | Molecule | Binding Capacity
33 | HQKMIFC [p4794] | 2 (medium binding :40000-320000)
34 | GEILFGMC [p4689] | 3 (strong binding :>320000)
35 | SHQRLWFC [p4674] | 3 (strong binding :>320000)
36 | NDAKIVFC [p4667] | 3 (strong binding :>320000)

molecular target: monoclonal antibody MV-001; assay: inhibition ELISA, competitor coated original epitope p4371; code 1 = weaker than original epitope; settings: not given

Row | Molecule | OD at 10 ug peptide relative to OD of original peptide (inhibition ELISA)
37 | B1 | 2 to 3 fold
38 | B2 | 2 to 3 fold
39 | B3 | 2 to 3 fold
40 | B4 | 2 to 3 fold
41 | B5 | 2 to 3 fold
42 | B6 | 2 to 3 fold
43 | B7 | 2 to 3 fold
44 | B8 | 2 to 3 fold
45 | B9 | 2 to 3 fold

molecular target: monoclonal antibody MV-001; assay: ELISA on peptide-BSA; code 2 = medium binding, OD halfmax 1:4000-20000; settings: not given

Row | Molecule | OD halfmax 1:X (dilution factor of the parental antibody at half-maximal OD) (dilutionfactor(1:x))
46 | B1 | 4000 to 20000
47 | B2 | 4000 to 20000
48 | B3 | 4000 to 20000
49 | B4 | 4000 to 20000
50 | B5 | 4000 to 20000
51 | B6 | 4000 to 20000
52 | B7 | 4000 to 20000
53 | B8 | 4000 to 20000
54 | B9 | 4000 to 20000

system: monoclonal antibody MV-001; assay: In vitro inhibition assay (ELISA), MV-001 binding to original epitope; set-up: species or system C57/B16 mice; settings: Table 2C; OD at 10 ug peptide compared to original peptide
Experimental: as §2
Legend to Table 2C: the inhibition capacity is coded by the following code: Weak inhibition means more peptide is required to lower AB binding than with the original epitope; strong inhibition means similar peptide amounts are required for mimotope and original epitope for lowering AB binding. Mimotopes are compared to the original peptide as standard. OD at 10 ug peptide used in the assay is used to calculate the competition capacity compared to original peptide.

Row | Molecule | Inhibition Capacity
55 | ADHDFRHC [p4740] | 1 (Weaker than original epitope (OD of 10 ug peptide below 3 times of original peptide))
56 | TLHEFRHC [p4715] | 2 (strong inhibition (as original epitope; OD of 10 ug peptide below 2 times of original peptide))
57 | SPNQFRHC [p4707] | 1 (Weaker than original epitope (OD of 10 ug peptide below 3 times of original peptide))
58 | THTDFRHC [p4725] | 1 (Weaker than original epitope (OD of 10 ug peptide below 3 times of original peptide))
59 | LMFRHNC [p4386] | 1 (Weaker than original epitope (OD of 10 ug peptide below 3 times of original peptide))
60 | SQFRHYC [p4385] | 1 (Weaker than original epitope (OD of 10 ug peptide below 3 times of original peptide))
61 | TSVFRHC [p4383] | 1 (Weaker than original epitope (OD of 10 ug peptide below 3 times of original peptide))
62 | DEHPFRHC [p4730] | 1 (Weaker than original epitope (OD of 10 ug peptide below 3 times of original peptide))
63 | QSEFKHWC [p4738] | 1 (Weaker than original epitope (OD of 10 ug peptide below 3 times of original peptide))
64 | SEFKHGC [p4381] | 1 (Weaker than original epitope (OD of 10 ug peptide below 3 times of original peptide))
65 | ILFRHGC [p4390] | 1 (Weaker than original epitope (OD of 10 ug peptide below 3 times of original peptide))
66 | TEFRHKAC [p4753] | 2 (strong inhibition (as original epitope; OD of 10 ug peptide below 2 times of original peptide))

— patent US20130287807A1, “COMPOUNDS FOR TREATING SYMPTOMS ASSOCIATED WITH PARKINSON'S DISEASE” (priority 2008, published 2013)
